The data set can be described thus: Solubility of the bifunctional linker in solvents. In kind it is physicochemical.

In patent US12269797B2, “Bifunctional linker for bisconjugation, method of synthesis, and method of use” (priority 2020, dated 2025) one finds solubility data, which are given here for one molecule.

The structures appear in SMILES notation.

`C#CCOC(=O)c1ccc(C=O)c(C=O)c1` [Ib, Prop-2-yn-1-yl 3,4-diformylbenzoate]: the solubility entry by setting is: (in DMSO or methanol) “soluble”; (in hexanes or water) “limited solubility”.
